In patent US6831199B1, “Pyrimidine compounds and derivatives thereof” (G. D. Searle & Co., priority 1995, dated 2004):
Where a name gives a salt, the structure may show the parent alone.

Columns and labels:
[1] = molecular target: T1, Human vitronectin receptor (αvβ3) (Homo sapiens, UniProt P05106+P06756); assay: Vitronectin adhesion assay (solid phase receptor assay, competition with biotinylated vitronectin); assay type: binding; conditions: read-out: AvB3 IC50
T1 construct: Human vitronectin receptor (αvβ3) was purified from human placenta; from tissue; host or cells: human placenta
Method in brief: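 Purified human αvβ3 coated overnight at 4 °C in TBS with 1.0 mM Ca++, Mg++, Mn++, pH 7.4; compounds (top final 1.0×10^−4 M) competed with 1 nM biotinylated vitronectin for 2 h at room temperature. Bound ligand detected by HRP anti-biotin/OPD at A450; values normalized to no-competitor controls, four-parameter curve fit.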

[2] = molecular target: T2, Human fibrinogen receptor (αIIbβ3) (Homo sapiens, UniProt P05106+P08514); assay: Purified IIb/IIIa receptor assay (solid phase receptor assay, competition with biotinylated vitronectin); assay type: binding; conditions: read-out: IIb/IIIa IC50
T2 construct: Human fibrinogen receptor (αIIbβ3) was purified from outdated platelets; from tissue; host or cells: outdated human platelets
Method in brief: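 Competition format: 1 nM biotinylated vitronectin plus test compound (highest 1.0×10^−4 M), 2 h at room temperature on wells coated with platelet-derived αIIbβ3. Buffer was TBS containing 1.0 mM Ca, Mg, Mn, pH 7.4. HRP anti-biotin readout at 450 nm; normalized to maximum binding, four-parameter curve fit.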

Structure (SMILES)	IC50 [1]	IC50 [2]
Cc1ccc(C(=O)NCC(=O)NC(CC(=O)O)c2cccnc2)cc1N (stereo not drawn) [Example 84, β-[[2-[[(3-amino-4-methylphenyl)carbonyl]amino]acetyl]amino]pyridine-3-propanoic acid, bis(trifluoroacetate)salt]	2800 nM	246 nM
CCOC(=O)CC(NC(=O)CNC(=O)c1cccc(N/C(=N\C#N)NCc2cccnc2)c1)c1ccccc1 (stereo not drawn) [Example 145, ethyl β-[[2-[[[3-[[(cyanoimino)[3-pyridinylmethyl)amino]methyl]amino]phenyl]carbonyl]amino]acetyl]amino]benzenepropanoate, trifluoroacetate salt]	2720 nM	> 100000 nM
N=C(N)Nc1cccc(C(=O)NC2CCN(CCC(=O)O)C2=O)c1 (racemic) [Example 42, (±)3-[[[3-[(aminoiminomethyl)amino]phenyl]carbonyl]amino]-2-oxopyrrolidine-1-propanoic acid, trifluoroacetate salt]	124 nM	9800 nM
C#C[C@H](CC(=O)O)NC(=O)CNC(=O)c1cccc(N/C(=N\C#N)NCc2ccc(S(N)(=O)=O)cc2)c1 [Example 158, 3S-[[2-[[[3-[[[[(4-(aminosulfonyl)phenylmethyl]amino](cyanoimino)methyl]amino]phenyl]carbonyl]amino]acetyl]amino]-4-pentynoic acid, trifluoroacetate salt, monohydrate]	10.1 nM	547 nM
CC(NC(=O)c1cccc(NC(=N)N)c1)C(=O)NC(CC(=O)O)c1cccnc1 (stereo not drawn) [Example 82, β-[[2-[[[3-[(aminoiminomethyl)amino]phenyl]carbonyl]amino]-1-oxopropyl]amino]pyridine-3-propanoic acid, bis(trifluoroacetate)salt]	334 nM	353 nM
O=C(O)CC(NC(=O)CNC(=O)c1cccc(NC(=O)NCc2ccccn2)c1)c1cccnc1 (stereo not drawn) [Example 268, β[[2-[[[3-[[[(2-pyridinylmethyl)amino]carbonyl]amino]phenyl]carbonyl]amino]acetyl]amino]pyridine-3-propanoic acid, (bis)trifluoroacetate salt]	0.67 nM	7430 nM
Cc1ccc(C(CC(=O)O)NC(=O)CNC(=O)c2cccc(NC(=N)N)c2)s1 (stereo not drawn) [Example 253, β-[[2-[[[3-[(aminoiminomethyl)amino]phenyl]carbonyl]amino]acetyl]amino]-5-methylthiophene-2-propanoic acid, trifluoroacetate salt]	0.84 nM	109 nM
COC(=O)CC(NC(=O)CNC(=O)c1cccc(NC(=N)N)c1)c1ccsc1 (racemic) [Example 57, (±)methyl β-[[2-[[[3-[(aminoiminomethyl)amino]phenyl]carbonyl]amino]acetyl]amino]thiophene-3-propanoate, trifluoroacetate salt]	1340 nM	15300 nM
N=C(N)Nc1cccc(C(=O)NCC(=O)NC(CC(=O)O)c2ccc(Br)c(Br)c2)c1 (racemic) [Example 207, (±)β-[[2-[[[3-[(aminoiminomethyl)amino]phenyl]carbonyl]amino]acetyl]amino]-3,4-dibromobenzenepropanoic acid, trifluoroacetate salt]	0.9 nM	148 nM
N=C(N)Nc1cc(NC(=N)N)cc(C(=O)NCC(=O)NC(CC(=O)O)c2cc(Cl)cc(Cl)c2)c1 (stereo not drawn) [Example 291, β-[[2-[[[3,5-bis[(aminoiminomethyl)amino]phenyl]carbonyl)amino]acetyl]amino]-3,5-dichlorobenzenepropanoic acid, bis(trifluoroacetate)salt]	1.24 nM	37.4 nM
N=C(N)Nc1cccc(C(=O)NCC(=O)NC(CC(=O)O)c2cc(Cl)cc(Cl)c2Cl)c1 (stereo not drawn) [Example 254, β-[[2-[[[3-[(aminoiminomethyl)amino]phenyl]carbonyl]amino]acetyl]amino]-2,3,5-trichlorobenzenepropanoic acid, trifluoroacetate salt]	16.5 nM	6910 nM
N=C(N)Nc1cccc(C(=O)NCC(=O)NC(CC(=O)O)c2cc(Cl)c(O)c(Cl)c2)c1 (stereo not drawn) [Example 277, β-[[2-[[[3-[(aminoiminomethyl)amino]phenyl]carbonyl]amino]acetyl]amino]-3,5-dichloro-4-hydroxybenzenepropanoic acid, trifluoroacetate salt]	1.41 nM	198 nM
N#C/N=C(/N)Nc1cccc(C(=O)NCC(=O)NC(CC(=O)O)c2cc(Cl)cc(Cl)c2)c1 (stereo not drawn) [Example 160, β-[[2-[[[3-[[amino(cyanoimino)methyl]amino]phenyl]carbonyl]amino]acetyl]amino]-3,5-dichlorobenzenepropanoic acid]	25.6 nM	10400 nM
CCN/C(=N\C)Nc1cccc(C(=O)NCC(=O)NC(CC(=O)O)c2cc(Cl)cc(Cl)c2)c1 (racemic) [Example 295, (±)3,5-dichloro-β-[[2-[[[3-[[(ethylamino)(methylimino)methyl]amino]phenyl]carbonyl]amino]acetyl]amino]benzenepropanoic acid, trifluoroacetate salt]	144 nM	4560 nM
N=C(N)Nc1cccc(C(=O)NCC(=O)NC(CC(=O)O)c2cc(Cl)ccc2O)c1 (racemic) [Example 231, (±)β-[[2-[[[3-[(aminoiminomethyl)amino]phenyl]carbonyl]amino]acetyl]amino]-5-chloro-2-hydroxybenzenepropanoic acid, trifluoroacetate salt, monohydrate]	2.99 nM	424 nM
CNC(=NC#N)Nc1cccc(C(=O)NCC(=O)NC(CC(=O)O)c2cc(Cl)cc(Cl)c2)c1 (racemic) [Example 198, (±)3,5-dichloro-β-[[2-[[[3-[(cyanoimino)(methylamino)methyl]amino]phenyl]carbonyl]amino]acetyl]amino]benzenepropanoic acid]	114 nM	37800 nM
O=C(O)CC(NC(=O)CNC(=O)c1cccc(NC2=NCCCN2)c1)c1cc(Br)cc(Br)c1 (racemic) [Example 211, (±)3,5-dibromo-β-[[2-[[[3-[(1,4,5,6-tetrahydropyrimidin-2-yl)amino]phenyl]carbonyl]amino]acetyl]amino]benzenepropanoic acid, trifluoroacetate salt]	0.47 nM	607 nM
CCOC(=O)CC(NC(=O)CNC(=O)c1cccc(NC(=N)N)c1)c1cnc2ccccc2c1 (racemic) [Example 98, (±)ethyl β-[[2-[[[3-[(aminoiminomethyl)amino]phenyl]carbonyl]amino]acetyl]amino]-quinoline-3-propanoate, bis(trifluoroacetate)salt]	146 nM	500 nM
CC(C)C(CC(=O)O)NC(=O)CNC(=O)c1cccc(NC(=N)N)c1 (stereo not shown) [Example 263, 3-[[2-[[[3-[(aminoiminomethyl)amino]phenyl]carbonyl]amino]acetyl]amino]-4-methylpentanoic acid, trifluoroacetate salt]	4.19 nM	2760 nM
CCOC(=O)CC(NC(=O)CNC(=O)c1cccc(NC(N)=O)c1)c1cccnc1 (stereo not drawn) [Example 109, ethyl β-[[2-[[[3-(aminocarbonylamino]phenyl]carbonyl]amino]acetylamino]pyridine-3-propanoate, trifluoroacetate salt]	575 nM	> 100000 nM
CC1(C)CN=C(Nc2cccc(C(=O)NCC(=O)NC(CC(=O)O)c3cc(Cl)cc(Cl)c3)c2)NC1 (racemic) [Example 367, (±)3,5-dichloro-β-[[2-[[[3-[(1,4,5,6-tetrahydro-5,5-dimethylpyrimidin-2-yl)amino]phenyl]carbonyl]amino]acetyl]amino]benzenepropanoic acid, trifluoroacetate salt]	0.35 nM	1540 nM
N=C(N)Nc1cccc(C(=O)NCC(=O)NC(CC(=O)O)c2cccc(OCC(=O)O)c2)c1 (stereo not drawn) [Example 260, β-[[2-[[[3-[(aminoiminomethyl)amino]phenyl]carbonyl]amino]acetyl]amino]-3-(carboxymethoxy)benzenepropanoic acid, trifluoroacetate salt]	0.74 nM	65.3 nM
N=C(N)Nc1cccc(C(=O)NCC(=O)NC(CC(=O)O)c2cc3ccccc3o2)c1 (stereo not drawn) [Example 259, β-[[2-[[[3-[(aminoiminomethyl)amino]phenyl]carbonyl]amino]acetyl]amino]benzofuran-2-propanoic acid, trifluoroacetate salt]	0.81 nM	86.7 nM
Nc1nnc(Nc2cccc(C(=O)NCC(=O)NC(CC(=O)O)c3cc(Cl)cc(Cl)c3)c2)[nH]1 (stereo not drawn) [Example 282, β-[[2-[[[3-[(5-amino-1,2,4-triazol-3-yl)amino]phenyl]carbonyl]amino]acetyl]amino]-3,5-dichlorobenzenepropanoic acid, trifluoroacetate salt]	864 nM	9770 nM
N=C(N)NCc1cccc(C(=O)NCC(=O)NC(CC(=O)O)c2cccnc2)c1 (racemic) [Example 85, (±)β-[[2-[[[3-[[(aminoiminomethyl)amino]methyl]phenyl]carbonyl]amino]acetyl]amino]pyridine-3-propanoic acid, bis(trifluoroacetate)salt]	6.65 nM	8.07 nM
CCC(CC(=O)O)NC(=O)CNC(=O)c1cccc(NC(=N)N)c1 (stereo not shown) [Example 264, 3-[[2-[[[3-[(aminoiminomethyl)amino]phenyl]carbonyl]amino]acetyl]amino]pentanoic acid, trifluoroacetate salt]	2.18 nM	574 nM
